As a reminder, the IC50 is the concentration needed to halve the response being measured. The low end stands for greater potency in that assay, the high end for weaker potency in that assay.

Structures are written as SMILES.

Sequence of Beta-secretase 1 (P56817 whole entry): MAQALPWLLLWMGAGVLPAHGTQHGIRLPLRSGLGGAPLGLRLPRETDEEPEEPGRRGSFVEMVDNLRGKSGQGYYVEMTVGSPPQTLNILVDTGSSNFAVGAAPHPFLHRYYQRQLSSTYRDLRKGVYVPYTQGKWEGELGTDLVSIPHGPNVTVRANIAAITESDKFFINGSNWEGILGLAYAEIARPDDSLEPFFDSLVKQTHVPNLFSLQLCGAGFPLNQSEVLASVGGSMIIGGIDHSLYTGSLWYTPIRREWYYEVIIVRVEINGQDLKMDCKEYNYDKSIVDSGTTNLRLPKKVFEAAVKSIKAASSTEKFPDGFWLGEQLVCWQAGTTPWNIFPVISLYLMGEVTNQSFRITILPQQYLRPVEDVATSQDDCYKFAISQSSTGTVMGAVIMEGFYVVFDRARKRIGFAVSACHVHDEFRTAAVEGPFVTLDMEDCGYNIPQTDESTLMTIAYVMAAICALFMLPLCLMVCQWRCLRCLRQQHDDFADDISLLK

This assay concerns the target Beta-secretase 1 (Homo sapiens, UniProt P56817). Put plainly: Inhibition of BACE1-mediated amyloid beta (1 to 40) production after 48 hrs by cell based HTRF immunoassay.
As for `CN1C(=O)CC2(N=C1N)c1cc(-c3cc(F)cc(Cl)c3)ccc1OC1CC3(CC[C@@H]12)OCCO3` (stereo partly drawn), the IC50 worked out at 3080 nM. This counts as single-digit micromolar.
The result for `NC1=N[C@]2(CO1)c1cc(-c3cncc(Cl)c3)ccc1OC1OC[C@H](OCC3CC3)C[C@@H]12` (mixture of isomers) reads 8.9 nM; that for `NC1=N[C@@]2(CO1)c1cc(-c3cncc(Cl)c3)ccc1OC1OC[C@H](OCC3CC3)C[C@@H]12` (single isomer, unassigned), 7.8 nM.

Source of the values: ChEMBL document CHEMBL2150907, “BACE-Inhibitors: Potential Treatment of Alzheimer Disease, Dementia, and Related Neurodegenerative Diseases. C. Spiro-Heterocyclic Derivatives: Patent Highlight” (ACS Med Chem Lett, 2012).
